Assay results taken from patent publication US6706686B2, “Inhibition of histone deacetylase as a treatment for cardiac hypertrophy” (The Regents of the University of Colorado, priority 2001, dated 2004).
Entries after “also recorded” stand apart in the source; their conditions may differ.

What was measured:
[1] = test system: cultured cardiac myocytes; test: Myocyte growth by 14C-phenylalanine radiolabeled protein content; type: cell-based, rat
Protocol: Cell culture. Ventricular myocytes from one-day-old rats were plated at low density in MEM with 5% calf serum, and studied in serum-free MEM. Cultures were treated with PE (#P6126, Sigma-Aldrich Corp., St. Louis, Mo.), IL-1 (#501-RL, R&D Systems, Minneapolis, Minn.), TSA (#GR-309, BIOMOL Research Laboratories, Inc., Plymouth Meeting, Pa.) or their vehicles (ascorbic acid for PE; bovine serum albumin for IL-1; dimethyl sulfoxide for TSA).
Quantification of myocyte hypertrophy and myocyte-specific mRNA expression. Growth of cultured myocytes was quantified by content of radiolabeled protein after continuous incubation with ^14C-phenylalanine. For evaluation of the myocyte gene program, total RNA was extracted from cells with TRIZol (GIBCO, Carlsbad, Calif.) and used in RNase protection assay with probes for SERCA, α-/β-MyHC, ANP, BNP, and cardiac α-actin. All samples also included glyceraldehyde phosphate dehydrogenase (GAPDH) as an internal control for RNA loading.

[2] = test system: ANF in neonatal cardiomyocytes; test: ANF chemiluminescence detection, dose response; type: cell-based, rat
Protocol: FIGS. 4A-C. […] As in the transfection experiments, phenylephrine (100 µM) induces ANF expression over three-fold. […] (FIGS. 4B and 4C) The graphs show a reduction of the chemiluminent detection of ANF in the culture medium with increasing concentrations of the HDAC inhibitors TSA (FIG. 4B) and sodium butyrate (FIG. 4C) when co-cultured with the hypertrophic stimulants FBS, PE or ET-1.
Chemilumenescence. Neonatal cardiomyocytes were seeded onto 96-well plates and treated for 72 hrs. The cells were washed twice in 1×PBS, fixed in 4% paraformaldehyde/1×PBS, and permeabilized with 0.1% Triton-X100. After blocking, the cells were incubated 1 hr. with 10 μg/ml monoclonal anti-ANF antibody (Biodesign). The wells were washed twice with 1% BSA/1× PBS and then incubated for 1 hr. with goat anti-mouse IgG-Fc-HRP (Jackson Labs, […]) at 1:1000 in 1× PBS/1% BSA. Cells were washed twice with 1% BSA/1×PBS, twice with 1× PBS, then blotted dry. Luminol (Pierce, Rockford, Ill.) was added and the chemiluminescence was detected in a Fusion Plate Reader (Perkin Elmer/Packard).

[3] = test system: mouse model; settings: Takahashi et al, 1996; cited from earlier work
[4] = test system: cardiomyocytes; test: Immunostaining for ANF protein and α-actinin (sarcomere); type: cell-based, rat
Protocol: Immunostaining. Glass coverslips were coated with laminin (Invitrogen, Carlsbad, Calif.) by solublizing laminin in 1× PBS (40 μg/ml), by dipping the coverslips in the solution and by allowing them to air-dry. Cells were treated for 24 hrs, washed, fixed 10 min. with 3.7% formaldehyde, washed with 1× PBS and permeabolized with 1× PBS containing 3% BSA and 0.1% NP-40 (Sigma, St. Louis, Mo.). Primary Antibodies were in 1× PBS containing 3% BSA and 0.1% NP-40 for 30 min, then washed three times in 1× PBS. The secondary FITC or TRITC antibodies (Vector Laboratories, Inc., Burlingame, Calif.) were incubated (1:200) in same buffer solution as the primary antibodies, then washed in 1× PBS, covered and subsequently visualized. Images were captured using a digital camera (Hamamatsu Photonics, Hamamatsu City, Japan).

[5] = test system: SERCA, αMyHC, βMyHC promoters in cultured myocytes; test: CAT reporter assay of myocyte-specific promoters; type: cell-based, rat; settings: TSA 30 nmol/L
Protocol: FIGS. 2A-D. Over-expression of HDACs repress muscle-specific promoters. Cultured myocytes were transfected for 72 hrs. with expression vectors (2 μg per ˜3×10^5 cells) for Flag-tagged HDAC1, 4, 5 (or its backbone vector) and CAT reporter (5 μg) constructs for SERCA (FIG. 2A), αMyHC (FIG. 2B), βMyHC (FIGS. 2C and 2D) genes, plus SV40-driven secreted alkaline phosphatase (SEAP 1 μg, Clontech). TSA was used at 30 nmol/L, and added just after the transfection. PE […] (20 μmol/L) was added 24 hrs. later and CAT assays performed after an additional 48 hours. Mean data are from n=3 different cultures, and are presented as % of pCMV after normalization to SEAP activity in the media. Over-expression of HDAC was confirmed by Western blot for Flag.
Transfection. Myocytes were transfected using calcium-phosphate co-precipitation with cytomegalovirus promoter driven Flag-tagged expression vectors for HDACs 1, 4, 5 and reporter plasmids carrying the rat promoters for SERCA (3500 bp), αMyHC (2900 bp), or βMyHC (3300 bp) driving expression […] of the chroramphenicol acetyltransferase (CAT) gene. Reporter expression was evaluated after 48 hours as described previously with corection for transfection efficiency with SEAP (BD Biosciences Clontech, Palo Alto, Calif.). Over-expression of HDACs was confirmed by Western blot analyses using anti-Flag M2 antibody (Sigma-Aldrich Corp. St. Louis, Mo.).

[6] = test system: ANF promoter in neonatal rat cardiomyocytes; test: ANF promoter transcription (luciferase) assay; type: cell-based
Protocol: FIGS. 3A-D. HDAC inhibitors block the activation of ANF reporter by phenylphrine without cytotoxicity. Neonatal rat cardiomyocytes were co-transfected with a total of 1 μg of the mouse 3 kb ANF promoter fragment and CMV-Lac Z plasmids. (FIG. 3A) The ANF promoter is minimally active in unstimulated cardiomyocytes. […] (FIG. 3B) Lac Z expression by the constitutive promoter CMV. Treatment with HDAC inhibitors augmented CMV activity with and without phenylephrine co-treatment. (FIGS. 3C and 3D) The graphs show the measurements of adenylate kinase activity remains constant in the medium after […] of culturing cardiomyocytes in the absence or presence of hypertrophic stimulants FBS, PE or ET-1.
Cardiomyocyte isolation. Hearts were harvested from 15-day timed-pregnant female Sprague-Dawley rats (Harlan, Houston, Tex.). After mincing in phosphate-buffered saline, cardiomyocytes were isolated from successive digestion fractions of 0.1% (w/v) Pancreatin (Sigma, St. Louis, Mo.) solution. Fractions were collected; resuspended in plating medium, pooled; and then plated for 2 hours to separate fibroblasts from cardiomyocyte population. Suspended cells were recollected and plated in 6-well dishes at 1×10^6 cells/well for transfection and immunofluorescence experiments, and 2×10^6 cells in 10 cm dishes for RNA analysis.
Transcription assay. Twenty-four hours after plating, cells were transfected with total of 1 μg/ml for 5 hrs using Lipofectamine Plus reagent (Invitrogen, Carlsbad, Calif.). Transfected cells were incubated 24 hrs then treated for an additional 24 hrs. Cells were lysed and their lysates assayed with the Luciferase Assay System (Promega, Madison, Wis.) for luminescence using Lucysoft 2 luminometer (Rosys Anthos, New Castle, Del.).

With `CC(/C=C/C(=O)NO)=C\[C@@H](C)C(=O)c1ccc(N(C)C)cc1` [TSA, Trichostatin A] the myocyte growth ([1]; inhibitor by itself) was “had no effect on myocyte growth”, the “hypertrophic responses to PE and IL-1 (growth)” value ([1]; with PE or IL-1) was “enhanced the individual hypertrophic responses to both PE and IL-1” and the “minimal concentration that inhibited the hypertrophic response (ANF) of each growth stimulant” value ([2]; FBS, PE, ET-1) was 40 nM. The “induction of ANF expression by FBS, PE and ET-1” value ([2]; increasing concentrations) was “countered the induction of ANF expression”, the “ANF expression at very low doses” value ([2]; very low doses (0.2 nM printed for sodium butyrate)) was “only a marginal increase” and the immunosuppression [3] was “induces immunsuppression”. For the same compound, the “ANF protein accumulation, inhibitor alone” value ([4]; 24 hrs) was “lacked accumulation of ANF protein”, the cell size ([4]; TSA alone) was “did not change size” and the “organization of the sarcomere (α-actinin), inhibitor alone” value ([4]; TSA alone) was “lacked organization of the sarcomere”. The “organization of the sarcomere with growth stimulants” value ([4]; phenylephrine, serum or ET-1) was “lacked fully organized sarcomeres”, the “ANF protein accumulation induced by phenylephrine or serum” value ([4]; with phenylephrine or serum) was “dramatically reduced ANF protein accumulation” and the “basal SERCA2 promoter activity” value [5] was “increased the basal promoter activities”. The “basal αMyHC promoter activity” value [5] was “increased the basal promoter activities”, the “basal βMyHC promoter activity” value [5] was “not that of βMyHC” and the “activation of ANF promoter by phenylephrine” value ([6]; phenylephrine 100 μM, TSA 85 nM, NaBut 5 mM, HC-toxin 5 ng/ml) was “did block the promoter's activation by phenylephrine treatment completely; also recorded: prevented the activation of the ANF promoter”. For the same compound, the “ANF promoter activity, inhibitor alone” value ([6]; unstimulated cardiomyocytes) was “did not activate the ANF promoter”.
